Experimental data published in ChEMBL document CHEMBL1201862, “PubChem BioAssay data set” (2004).
The source made the active and inactive calls. Cut-off read from the data, not from the text of the source, for most assays here: actives have a measured IC50 and inactives only a lower limit.

Key:
[1] = molecular target: Serine/threonine-protein kinase pim-1 (Homo sapiens, UniProt P11309); format: functional
[2] = molecular target: Cell division cycle 7-related protein kinase (Homo sapiens, UniProt O00311); format: functional;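 note: value obtained from a kinome-wide kinase panel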
Cell division cycle 7-related protein kinase, sequence (O00311 whole entry): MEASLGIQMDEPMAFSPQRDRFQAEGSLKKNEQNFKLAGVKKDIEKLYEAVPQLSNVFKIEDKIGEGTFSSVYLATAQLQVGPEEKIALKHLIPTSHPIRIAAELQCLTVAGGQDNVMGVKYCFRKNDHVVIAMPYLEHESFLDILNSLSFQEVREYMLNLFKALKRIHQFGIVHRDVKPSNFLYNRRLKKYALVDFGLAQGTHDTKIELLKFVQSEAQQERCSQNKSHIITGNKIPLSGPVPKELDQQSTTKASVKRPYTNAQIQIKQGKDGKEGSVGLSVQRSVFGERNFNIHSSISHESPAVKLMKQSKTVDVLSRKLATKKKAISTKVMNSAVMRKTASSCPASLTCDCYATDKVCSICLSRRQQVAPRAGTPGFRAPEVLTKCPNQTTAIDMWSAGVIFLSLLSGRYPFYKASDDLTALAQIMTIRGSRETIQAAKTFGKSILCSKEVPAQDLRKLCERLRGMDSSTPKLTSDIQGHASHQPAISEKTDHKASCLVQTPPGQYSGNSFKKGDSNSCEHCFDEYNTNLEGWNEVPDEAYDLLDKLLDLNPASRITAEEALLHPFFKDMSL

[3] = molecular target: Homeodomain-interacting protein kinase 2 (Homo sapiens, UniProt Q9H2X6); format: functional;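 note: measured within a kinome-wide kinase profiling panel, HIPK2 being one panel member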
Homeodomain-interacting protein kinase 2, sequence (Q9H2X6 whole entry): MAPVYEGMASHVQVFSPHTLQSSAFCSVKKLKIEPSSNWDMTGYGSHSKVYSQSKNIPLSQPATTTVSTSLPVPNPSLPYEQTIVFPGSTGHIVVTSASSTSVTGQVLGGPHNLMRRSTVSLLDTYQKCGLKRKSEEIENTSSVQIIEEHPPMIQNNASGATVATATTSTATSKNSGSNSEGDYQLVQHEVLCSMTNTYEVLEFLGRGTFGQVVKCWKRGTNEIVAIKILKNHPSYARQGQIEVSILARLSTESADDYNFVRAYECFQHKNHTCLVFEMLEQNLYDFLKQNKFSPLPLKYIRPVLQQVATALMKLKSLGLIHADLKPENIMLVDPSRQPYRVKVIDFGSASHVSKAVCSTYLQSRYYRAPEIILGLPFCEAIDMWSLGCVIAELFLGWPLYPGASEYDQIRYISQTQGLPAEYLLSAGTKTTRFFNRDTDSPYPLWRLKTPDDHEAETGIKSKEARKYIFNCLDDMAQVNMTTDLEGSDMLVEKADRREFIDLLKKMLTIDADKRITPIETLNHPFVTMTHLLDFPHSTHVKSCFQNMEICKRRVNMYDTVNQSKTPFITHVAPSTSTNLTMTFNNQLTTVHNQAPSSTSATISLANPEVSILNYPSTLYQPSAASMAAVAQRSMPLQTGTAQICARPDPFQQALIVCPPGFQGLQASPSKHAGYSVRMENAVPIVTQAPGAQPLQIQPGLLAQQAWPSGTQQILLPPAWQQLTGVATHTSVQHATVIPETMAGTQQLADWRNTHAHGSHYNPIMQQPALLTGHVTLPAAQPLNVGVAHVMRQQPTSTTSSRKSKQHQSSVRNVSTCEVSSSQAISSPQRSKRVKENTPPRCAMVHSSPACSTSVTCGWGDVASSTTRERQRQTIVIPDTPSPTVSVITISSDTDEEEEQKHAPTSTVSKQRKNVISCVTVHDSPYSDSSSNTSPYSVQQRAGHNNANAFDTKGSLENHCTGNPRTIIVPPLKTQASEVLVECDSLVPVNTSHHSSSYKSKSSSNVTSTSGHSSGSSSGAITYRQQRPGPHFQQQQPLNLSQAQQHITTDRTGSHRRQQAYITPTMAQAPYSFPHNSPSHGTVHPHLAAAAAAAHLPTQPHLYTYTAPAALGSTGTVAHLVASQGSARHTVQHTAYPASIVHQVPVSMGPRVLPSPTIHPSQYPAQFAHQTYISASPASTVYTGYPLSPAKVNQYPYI

[4] = molecular target: Interleukin-1 receptor-associated kinase 4 (Homo sapiens, UniProt Q9NWZ3); format: functional
Interleukin-1 receptor-associated kinase 4, sequence (Q9NWZ3 whole entry): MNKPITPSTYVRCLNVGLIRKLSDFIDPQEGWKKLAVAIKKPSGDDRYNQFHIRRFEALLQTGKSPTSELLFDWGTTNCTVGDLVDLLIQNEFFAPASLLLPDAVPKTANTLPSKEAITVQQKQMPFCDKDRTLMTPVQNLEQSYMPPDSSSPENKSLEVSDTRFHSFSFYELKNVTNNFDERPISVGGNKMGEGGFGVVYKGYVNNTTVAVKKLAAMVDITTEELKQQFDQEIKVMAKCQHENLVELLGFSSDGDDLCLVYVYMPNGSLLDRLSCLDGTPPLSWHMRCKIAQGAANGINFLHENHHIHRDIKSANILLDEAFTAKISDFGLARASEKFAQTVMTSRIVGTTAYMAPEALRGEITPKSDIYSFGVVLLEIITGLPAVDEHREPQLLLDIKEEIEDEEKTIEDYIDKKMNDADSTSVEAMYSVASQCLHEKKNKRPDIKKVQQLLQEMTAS

[5] = molecular target: cAMP-dependent protein kinase catalytic subunit alpha (Homo sapiens, UniProt P17612); format: functional
[6] = molecular target: Mitogen-activated protein kinase kinase kinase kinase 4 (Homo sapiens, UniProt O95819); format: functional
Mitogen-activated protein kinase kinase kinase kinase 4, sequence (O95819 whole entry): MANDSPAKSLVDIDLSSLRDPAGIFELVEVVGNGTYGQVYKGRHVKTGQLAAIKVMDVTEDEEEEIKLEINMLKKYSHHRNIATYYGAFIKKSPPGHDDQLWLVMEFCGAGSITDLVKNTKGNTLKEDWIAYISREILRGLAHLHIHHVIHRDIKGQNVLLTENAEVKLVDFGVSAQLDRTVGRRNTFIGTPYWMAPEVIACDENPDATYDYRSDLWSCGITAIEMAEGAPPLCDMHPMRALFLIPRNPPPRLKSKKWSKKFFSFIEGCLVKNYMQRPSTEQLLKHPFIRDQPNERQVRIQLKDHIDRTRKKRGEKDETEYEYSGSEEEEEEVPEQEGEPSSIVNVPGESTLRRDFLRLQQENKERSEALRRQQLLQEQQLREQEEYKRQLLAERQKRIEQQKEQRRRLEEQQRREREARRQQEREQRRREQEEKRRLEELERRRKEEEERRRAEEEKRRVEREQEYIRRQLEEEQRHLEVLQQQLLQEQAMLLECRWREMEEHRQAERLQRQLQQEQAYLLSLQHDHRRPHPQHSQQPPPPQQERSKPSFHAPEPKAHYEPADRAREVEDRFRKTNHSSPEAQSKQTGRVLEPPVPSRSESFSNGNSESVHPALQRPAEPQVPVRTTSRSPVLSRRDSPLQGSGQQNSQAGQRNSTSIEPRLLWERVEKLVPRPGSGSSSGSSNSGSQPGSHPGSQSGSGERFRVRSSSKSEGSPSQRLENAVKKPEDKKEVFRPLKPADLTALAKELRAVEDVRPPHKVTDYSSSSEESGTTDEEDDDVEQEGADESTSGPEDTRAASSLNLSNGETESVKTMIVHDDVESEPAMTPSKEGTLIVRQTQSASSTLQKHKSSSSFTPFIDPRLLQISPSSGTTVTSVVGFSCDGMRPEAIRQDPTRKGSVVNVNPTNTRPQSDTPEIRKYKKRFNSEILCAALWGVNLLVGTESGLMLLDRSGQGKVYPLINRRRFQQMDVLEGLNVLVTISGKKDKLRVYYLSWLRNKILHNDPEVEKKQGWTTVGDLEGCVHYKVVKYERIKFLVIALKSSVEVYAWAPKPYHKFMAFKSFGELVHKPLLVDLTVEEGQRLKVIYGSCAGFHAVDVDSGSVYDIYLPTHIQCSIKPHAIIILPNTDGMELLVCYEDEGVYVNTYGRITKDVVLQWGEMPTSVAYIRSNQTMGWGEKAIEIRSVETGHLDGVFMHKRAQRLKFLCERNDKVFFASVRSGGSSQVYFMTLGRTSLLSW

[7] = molecular target: T1, Sentrin-specific protease 8 (Homo sapiens, UniProt Q96LD8); experiment: inhibition of human SENP8 cleavage activity – biochemical, luminescence, SAR follow-up (AID 504501); format: functional
T1 sequence (Q96LD8 whole entry): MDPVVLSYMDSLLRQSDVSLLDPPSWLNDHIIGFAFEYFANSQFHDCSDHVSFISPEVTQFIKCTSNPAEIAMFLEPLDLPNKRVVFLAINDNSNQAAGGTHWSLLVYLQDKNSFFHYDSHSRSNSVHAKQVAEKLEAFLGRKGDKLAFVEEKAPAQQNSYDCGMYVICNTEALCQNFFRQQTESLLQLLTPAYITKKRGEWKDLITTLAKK

Caspase-3 [8] = molecular target: T2, Caspase-3 (Homo sapiens, UniProt P42574); experiment: inhibition of recombinant caspase-3 activity – biochemical, luminescence, set 2, selectivity assay for SENP protease inhibitor project, SAR follow-up (AID 588599); format: functional
T2 sequence (P42574 whole entry): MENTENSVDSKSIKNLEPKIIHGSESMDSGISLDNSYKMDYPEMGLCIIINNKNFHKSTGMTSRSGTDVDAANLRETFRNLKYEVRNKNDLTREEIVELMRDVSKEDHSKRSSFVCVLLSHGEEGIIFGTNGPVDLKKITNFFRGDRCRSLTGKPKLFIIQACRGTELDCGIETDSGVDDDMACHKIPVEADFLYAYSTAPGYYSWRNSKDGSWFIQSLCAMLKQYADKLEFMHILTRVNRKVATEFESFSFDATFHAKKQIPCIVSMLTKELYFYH

[9] = molecular target: T1, Sentrin-specific protease 8; experiment: inhibition of sentrin protease 8 – biochemical, luminescence, set 2, SAR follow-up (AID 588601); format: functional
Caspase-3 [10] = molecular target: T2, Caspase-3; experiment: SAR Analysis of small molecule inhibitors of Sentrin-specific proteases (SENPs) using a Caspase-3 Selectivity assay. [Related pubchem assays (depositor defined):AID2540, AID2599, AID434973, AID489001]; format: functional
[11] = molecular target: T3, Sentrin-specific protease 7 (Homo sapiens, UniProt Q9BQF6); experiment: inhibition of human SENP7 cleavage activity – biochemical, luminescence, set 2, SAR follow-up (AID 588600); format: functional
T3 sequence (Q9BQF6 whole entry): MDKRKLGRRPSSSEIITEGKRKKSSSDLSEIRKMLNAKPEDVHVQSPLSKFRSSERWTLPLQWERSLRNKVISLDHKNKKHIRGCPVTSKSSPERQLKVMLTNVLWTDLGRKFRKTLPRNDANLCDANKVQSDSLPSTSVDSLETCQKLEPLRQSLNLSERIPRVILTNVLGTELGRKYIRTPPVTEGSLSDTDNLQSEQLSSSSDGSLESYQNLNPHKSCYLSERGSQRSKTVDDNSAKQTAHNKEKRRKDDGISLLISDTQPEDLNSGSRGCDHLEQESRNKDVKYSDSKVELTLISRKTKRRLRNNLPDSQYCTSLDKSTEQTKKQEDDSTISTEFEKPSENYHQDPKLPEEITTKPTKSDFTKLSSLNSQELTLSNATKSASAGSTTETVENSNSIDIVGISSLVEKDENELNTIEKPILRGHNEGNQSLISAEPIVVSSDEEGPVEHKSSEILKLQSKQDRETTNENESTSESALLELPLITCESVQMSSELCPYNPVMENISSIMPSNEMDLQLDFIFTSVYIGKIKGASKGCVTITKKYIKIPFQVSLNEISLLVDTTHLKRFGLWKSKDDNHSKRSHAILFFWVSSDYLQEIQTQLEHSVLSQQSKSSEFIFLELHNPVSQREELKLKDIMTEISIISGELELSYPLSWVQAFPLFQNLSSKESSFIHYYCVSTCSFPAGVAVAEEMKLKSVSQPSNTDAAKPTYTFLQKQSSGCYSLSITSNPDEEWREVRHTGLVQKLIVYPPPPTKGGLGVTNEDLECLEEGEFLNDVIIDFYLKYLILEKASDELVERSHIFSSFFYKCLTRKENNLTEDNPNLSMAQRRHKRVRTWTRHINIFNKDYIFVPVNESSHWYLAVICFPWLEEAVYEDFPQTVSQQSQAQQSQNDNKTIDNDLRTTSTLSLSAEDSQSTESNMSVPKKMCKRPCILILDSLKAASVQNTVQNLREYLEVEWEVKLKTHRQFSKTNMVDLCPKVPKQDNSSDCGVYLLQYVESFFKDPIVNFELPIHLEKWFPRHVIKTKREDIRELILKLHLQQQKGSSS

[12] = molecular target: T4, Sentrin-specific protease 6 (Homo sapiens, UniProt Q9GZR1); experiment: SAR Analysis of small molecule inhibitors of Sentrin-specific protease 6 (SENP6) using a Luminescent assay. [Related pubchem assays (depositor defined):AID2582, AID2599]; format: functional
T4 sequence (Q9GZR1 whole entry): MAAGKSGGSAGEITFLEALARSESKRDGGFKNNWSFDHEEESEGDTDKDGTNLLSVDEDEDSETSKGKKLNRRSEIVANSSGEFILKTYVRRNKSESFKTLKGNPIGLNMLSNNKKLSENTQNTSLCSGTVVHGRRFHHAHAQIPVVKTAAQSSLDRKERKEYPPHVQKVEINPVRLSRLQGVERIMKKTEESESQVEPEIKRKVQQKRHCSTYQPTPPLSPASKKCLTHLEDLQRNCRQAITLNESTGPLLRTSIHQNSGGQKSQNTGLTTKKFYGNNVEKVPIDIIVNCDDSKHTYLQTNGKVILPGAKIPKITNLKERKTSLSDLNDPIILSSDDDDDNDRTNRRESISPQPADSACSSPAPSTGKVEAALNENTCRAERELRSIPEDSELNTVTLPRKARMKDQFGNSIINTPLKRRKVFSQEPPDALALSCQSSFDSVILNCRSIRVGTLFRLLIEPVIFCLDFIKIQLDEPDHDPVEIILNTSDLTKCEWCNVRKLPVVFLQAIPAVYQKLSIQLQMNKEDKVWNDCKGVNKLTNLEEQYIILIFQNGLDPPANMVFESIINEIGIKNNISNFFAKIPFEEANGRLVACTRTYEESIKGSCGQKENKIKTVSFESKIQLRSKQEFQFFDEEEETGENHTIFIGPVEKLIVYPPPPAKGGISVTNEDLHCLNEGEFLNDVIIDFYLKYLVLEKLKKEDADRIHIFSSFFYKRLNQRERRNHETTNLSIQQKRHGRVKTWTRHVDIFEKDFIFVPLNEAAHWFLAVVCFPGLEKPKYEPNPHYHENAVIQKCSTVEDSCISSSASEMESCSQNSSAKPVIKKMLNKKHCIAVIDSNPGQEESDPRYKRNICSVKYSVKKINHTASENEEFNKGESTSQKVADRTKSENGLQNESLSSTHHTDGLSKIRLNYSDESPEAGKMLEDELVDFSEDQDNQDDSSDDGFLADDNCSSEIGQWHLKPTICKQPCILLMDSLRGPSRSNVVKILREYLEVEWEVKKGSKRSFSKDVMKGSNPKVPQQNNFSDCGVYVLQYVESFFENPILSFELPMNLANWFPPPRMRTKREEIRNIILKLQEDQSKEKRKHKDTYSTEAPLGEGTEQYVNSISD

[13] = molecular target: T4, Sentrin-specific protease 6; experiment: inhibition of human SENP6 catalytic domain – biochemical, luminescence, set 2, SAR follow-up (AID 588598); format: functional
[14] = molecular target: T3, Sentrin-specific protease 7; experiment: inhibition of human SENP7 cleavage activity – biochemical, luminescence, SAR follow-up (AID 504497); format: functional
[15] = Mcl1-dependent cancer cell viability – HMC-1-8 cells, luminescence, dry powder, selectivity assay for A1 inhibitor project, dose response (AID 504415); format: functional, cell-based; details: Homo sapiens

Serine/threonine-protein kinase pim-1, sequence (P11309 whole entry): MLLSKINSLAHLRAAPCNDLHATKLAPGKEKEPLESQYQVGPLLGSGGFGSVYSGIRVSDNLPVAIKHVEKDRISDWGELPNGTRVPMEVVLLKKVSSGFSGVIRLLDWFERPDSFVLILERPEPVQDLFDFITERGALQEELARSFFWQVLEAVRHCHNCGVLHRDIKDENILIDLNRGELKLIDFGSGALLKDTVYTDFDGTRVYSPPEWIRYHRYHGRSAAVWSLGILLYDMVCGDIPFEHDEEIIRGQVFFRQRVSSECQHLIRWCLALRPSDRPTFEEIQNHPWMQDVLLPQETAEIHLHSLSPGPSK

## c1ccc(Cn2cc(-c3ccc4[nH]nc(-c5cn(Cc6ccccc6)nn5)c4c3)nn2)cc1
[1]
  Ki: 0.398 µM (active)
[2]
  Ki: 0.0501 µM (active)
[3]
  Ki: 0.0158 µM (active)
[4]
  Ki: 3.98 µM (active)
[5]
  Ki: > 7.94 µM (inactive)
[6]
  Ki: 0.1 µM (active)

## CC(=O)Nc1ccc(/C=C/c2noc(-c3ccccc3O)n2)cc1
[7]
  IC50: > 99 µM (inactive)
Caspase-3 [8]
  IC50: > 99 µM (inactive)
[9]
  IC50: 1.86 µM (active)
Caspase-3 [10]
  IC50: 35 µM (active)
[11]
  IC50: 2.31 µM (active)
[12]
  IC50: > 99 µM (inactive)
[13]
  IC50: > 99 µM (inactive)
[14]
  IC50: 7.2 µM (active)

## Cc1ccc(Sc2c([N+](=O)[O-])c(=O)oc3ccccc23)cc1
[15]
  AC50: 37.1 µM (active)
